Columns and labels:
[1] = system: T cells from cat-allergic patients; assay: Secondary proliferation assay of T cells primed with TRFP, peptide YXZ or peptide YZX; type: cell-based, human
Experimental: The human cat allergic T cell response to peptides produced as above was examined. […] Peptide YZX was cleaved with thrombin as described in Example 25. Viable cells were then purified by Ficoll-Hypaque centrifugation and cultured for 2 additional weeks in RPMI-1640/5% AB serum containing 5 units recombinant human IL-2/ml and 5 units recombinant human IL-4/ml. The resting T cells were then tested in a secondary proliferation assay using a 96 well microtiter plate to assess T cell responses to various TRFP proteins or peptides (TRFP antigens). For assay, 2×10^4 resting T cells were cultured for 3 days at 37° C. in the presence of 2×10^4 autologous Epstein-Barr virus transformed B cells (25,000 Rads) as antigen presenting cells with various concentrations of antigen in 200 μl per well. Each well then received 1 μCi tritiated thymidine for 16 hours. The counts incorporated were collected onto glass fiber filters and processed for liquid scintillation counting. The stimulation indices for responses to each antigen were then calculated as the maximum CPM in response to antigen divided by the medium control CPM. A stimulation index of 2.5 was considered to be a positive T cell response. A summary of the results of 3 such experiments (patients 522, 519, and 386 is shown in FIG. 35a, FIG. 35b and FIG. 35c). As compared to the experiments shown in FIGS. 35a and 35b in the experiment shown in […], Fel-1.4 (chain 1, amino acid residues 6-17) was substituted for Fel-1.2 (chain 1, amino acid residues 1-17) and Fel-33.3 (chain 2, amino acid residues 26-40) was substituted for Fel-18 (chain 2, amino acid residues 23-48) in order to more closely resemble the constituent amino acids of peptides X and Z. In addition, in this experiment one peptide derived from the Y-Z junction of peptide YZX (amino acid residues 50-55 from chain 1 of TRFP and amino acid residues 14-19 from chain 2 of TRFP) and one peptide derived from the Z-X junction of peptide YZX (amino acid residues 34-39 of chain 2 of TRFP and amino acid residues 7-12 of chain 1 of TRFP) were synthesized and tested. These junction peptides were produced in order to determine whether these areas of peptide YZX produce a non-native epitope when formed in the peptide.

[2] = system: human IgE (cat allergic patient plasma); assay: Direct binding ELISA of human IgE to coated antigen; settings: for specific IgE binding: direct binding ELISA or similar protocol
Experimental: The basic format of these ELISA assays was a direct binding assay wherein the antigen was coated onto the wells of a 96 well microtitre dish and then antibodies in solution are added and assayed for the binding capacity. The protocol for these assays was as follows:
The peptides were conjugated to HSA (human serum albumin) by two different methods based on their chemical structure. […] Both conjugates were filter purified and dialyzed against PBS. In the ELISA assay, the unbound coating antigens were removed and the wells were blocked with 0.5% gelatin in PBS, 200 μl/well for 2 hours at room temperature. The antibody solution was a pool of plasma samples from 20 patients that were skin test positive for commercial cat extract which was serially diluted with PBS-Tween 20 (PBS with 0.05% nonionic detergent Tween-Sigma, St. Louis Mo.) and 100 μl/well was added and incubated overnight at 4° C. (plasma dilutions are tested in duplicate). […] The second antibody (biotinylated goat anti-Human IgE, 1:1000 Kirkegaard & Perry Laboratories Inc. Gaithersburg, Md.), was added at 100 μl/well for one hour at room temperature. This solution was removed and streptavidin-HRPO, 1:1000, (Southern Biotechnology Associates, Inc., Birmingham, Ala.) was then added at 100 μl/well for one hour at room temperature (all wells were washed three times with PBS-Tween between each incubation step). TMB Membrane Peroxidase Substrate system (Kirkegaard & Perry Laboratories) was freshly mixed, and added at 100 μl/well. The color was allowed to develop for 2-5 minutes. The reaction was stopped by the addition of […] of 1 M phosphoric acid. Plates are read on a Microplate EL 310 Autoreader (Biotek Instruments, Winooski, Vt.) with a 450 nm filter. The absorbance levels of duplicate wells were averaged.

basophils = assay: Histamine release from basophils in heparinized whole blood of cat allergic patients; type: cell-based, human; settings: eight cat allergic patients
Experimental: The histamine release assay used for these studies is based on the detection of an acylated derivative of histamine using a specific monoclonal antibody (Morel, A. M. and Delaage, M. A.; 1988, J. Allergy Clin. Immunol. 82:646-654.) This assay was performed as two separate protocols: 1) the release of histamine from basophils present in heparinized whole blood in the presence of different concentrations of antigens and 2) the actual assaying of histamine present in the supernates of the release reactions following cell removal by centrifugation. The reagents for this histamine radioimmunoassay are supplied commercially as a kit by Amac Inc. (Westbrook, Me.).
Whole blood was drawn from cat allergic patients using heparinized syringes or vacutainers. […] The buffer control consisted of whole blood with just buffer and no added antigen. The release reactions were then carried out at 37° C. for 30 minutes. After this incubation the tubes were centrifuged at 1500 RPM for 3 minutes and the supernates were carefully removed. It was important to spin gently so that there would be no cell lysis giving misleading results. […]
For the RIA analysis, a 50 μl aliquot of the release supernatant was diluted 1:4 with Histamine release buffer (supplied with the kit from Amac Inc.) Then 100 μl of each diluted supernatant was added to the tubes containing the acylation reagent (a lyophilized powder). […] Then they were counted on a gamma counter (Cobra 5005, Beckman Inc.) for two minutes/tube.
Following the quantitation of ^125I label/tube the standard curve is generated from the histamine standard counts and plotted on semi-log paper. Because this is a competition assay, with labelled ^125I tracer competing with the standards or unknowns for cell supernatants, the lower the recorded counts the greater the amount of cold acylated histamine in the binding assay. The data points were then generated by reading off the values on the plotted standard curve of counts versus histamine concentration (in nM).

[3] = patient 386, T cells primed with YZX
[4] = patient 386, T cells primed with native TRFP
[5] = patient 519, cells primed with peptide YXZ
[6] = patient 522, T cells primed with YXZ
[7] = patient 519, native TRFP-primed T cells
[8] = patient 522, T cells primed with native TRFP, SI 2.5 positive

## peptide X: amino acid residues 7-30 from chain 1 of TRFP (SEQ. ID. NO: 17); Table 2 lists Fel 8-3 as 7-33 (KRDVDLFLTGTPDEYVEQVAQYKALPV)
[1]; [3]
  T cell response: respond at a similar level or better
[1]; [4]
  T cell response: positively respond
[1]; [5]
  T cell response: positive responses
[1]; [6]
  T cell response: respond at a similar level or better
[2]
  specific IgE binding: do not demonstrate any specific IgE binding
[2]; listed as Fel 8-3
  specific IgE binding: No direct IgE binding
basophils
  histamine release: no discernible histamine release

## NARILKNCVDAKMTEEDKE [Fel 4, TRFP chain 1 amino acids 37-55]
[1]; [5]
  T cell response: positive responses
[1]; [6]
  T cell response: respond at a similar level or better

## peptide Y: amino acid residues 29-55 from chain 1 of TRFP (SEQ. ID. NO: 18) (KALPVVLENARILKNCVDAKMTEEDKE)
[1]; [3]
  T cell response: respond at a similar level or better
[1]; [4]
  T cell response: positively respond
[1]; [5]
  T cell response: positive responses
[1]; [7]
  T cell response: respond
[1]; [6]
  T cell response: respond at a similar level or better
[1]; [8]
  T cell response: positively respond
[2]
  specific IgE binding: do not demonstrate any specific IgE binding
[2]; listed as Fel 30-4
  specific IgE binding: No direct IgE binding
basophils
  histamine release: no discernible histamine release

## TRFP: human T cell reactive feline protein affinity purified from house dust; two covalently linked chains
[1]; [3]
  T cell response: respond at a similar level or better
[1]; [4]
  T cell response: positively respond
[1]; [5]
  T cell response: positive responses
[1]; [7]
  T cell response: respond
[1]; [6]
  T cell response: respond less well
[1]; [8]
  T cell response: positively respond
[2]; ELISA, percent of cat allergic patients with positive IgE binding
  Positive Binding: 100%
[2]; pooled plasma, first dilution 1:2 in PBS
  absorbance reading, IgE binding: 0.65
basophils
  histamine release: at all but the lowest concentration, gives a clear release signal

— patent US7482008B1, “Human T cell reactive feline protein (TRFP) isolated from house dust and uses therefor” (Merck Patent GmbH, priority 1989, dated 2009)
